Several values for one entry are separate records, joined by “and”; a condition that tells them apart may be missing. Equal entries are not always repeated. Numbered stars: 1 amine (or outer) side, 2 acyl side, 3 side chain; on linkers, the order of the positions; unused ones are H or OH. Side chains are listed from the residue outwards. Ends that are not written are not given here. Peptide text beside a SMILES is read from it. * marks the point of attachment. γGlu = O=C(O)[C@H](CCC(=O)[*:2])N[*:1]; Palmitoyl = CCCCCCCCCCCCCCCC(=O)*; Ahx = NCCCCCC(=O)O
Tests used:
Test in all cases: cAMP activity assay in assay medium (assay 1)
Format in all cases: cell-based
[1] = biological target: Human GLP1R (Homo sapiens, UniProt P43220); parameters: expressed in transfected cells; conditions: assay medium; Table 4; read-out: hGLP1R EC50
Human GLP1R, sequence (P43220 24-463): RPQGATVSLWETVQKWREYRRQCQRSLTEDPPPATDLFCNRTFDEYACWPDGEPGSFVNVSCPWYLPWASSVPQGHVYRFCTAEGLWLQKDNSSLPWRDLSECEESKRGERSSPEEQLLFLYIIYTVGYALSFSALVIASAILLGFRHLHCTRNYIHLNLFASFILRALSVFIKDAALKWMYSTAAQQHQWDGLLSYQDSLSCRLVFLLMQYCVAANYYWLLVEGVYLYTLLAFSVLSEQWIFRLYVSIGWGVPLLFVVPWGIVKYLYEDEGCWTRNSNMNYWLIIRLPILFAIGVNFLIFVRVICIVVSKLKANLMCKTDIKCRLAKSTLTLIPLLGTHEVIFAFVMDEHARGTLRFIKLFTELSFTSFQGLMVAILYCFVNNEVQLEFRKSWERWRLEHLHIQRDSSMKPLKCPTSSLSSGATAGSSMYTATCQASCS
From the text: (§1) Biological Activity of Peptides in Cell-Based cAMP Activity Assay (Assay 1):
(§2) All sample dilutions were made in duplicate.

[2] = biological target: T1, Human GIPr (Homo sapiens, UniProt P48546); conditions: assay medium; Table 4; read-out: hGIPR EC50
T1 construct: expressed in transfected cells
T1 sequence (P48546 22-466): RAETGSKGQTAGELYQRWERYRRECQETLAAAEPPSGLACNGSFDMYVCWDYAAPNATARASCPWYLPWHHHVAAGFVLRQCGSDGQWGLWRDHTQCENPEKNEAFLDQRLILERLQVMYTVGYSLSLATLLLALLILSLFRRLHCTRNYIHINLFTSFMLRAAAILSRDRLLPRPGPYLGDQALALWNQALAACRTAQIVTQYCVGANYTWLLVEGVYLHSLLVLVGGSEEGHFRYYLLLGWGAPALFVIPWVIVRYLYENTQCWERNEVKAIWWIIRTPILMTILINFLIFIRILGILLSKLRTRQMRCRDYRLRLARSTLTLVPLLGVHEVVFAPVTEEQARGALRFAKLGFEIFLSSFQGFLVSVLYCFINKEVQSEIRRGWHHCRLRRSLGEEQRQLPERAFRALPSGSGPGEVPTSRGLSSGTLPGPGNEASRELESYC
From the text: as §1, §2

[3] = biological target: T2, Human GlucR (Homo sapiens, UniProt P47871); conditions: assay medium; Table 4; read-out: hGlucR EC50
T2 construct: expressed in transfected cells
T2 sequence (P47871 26-477): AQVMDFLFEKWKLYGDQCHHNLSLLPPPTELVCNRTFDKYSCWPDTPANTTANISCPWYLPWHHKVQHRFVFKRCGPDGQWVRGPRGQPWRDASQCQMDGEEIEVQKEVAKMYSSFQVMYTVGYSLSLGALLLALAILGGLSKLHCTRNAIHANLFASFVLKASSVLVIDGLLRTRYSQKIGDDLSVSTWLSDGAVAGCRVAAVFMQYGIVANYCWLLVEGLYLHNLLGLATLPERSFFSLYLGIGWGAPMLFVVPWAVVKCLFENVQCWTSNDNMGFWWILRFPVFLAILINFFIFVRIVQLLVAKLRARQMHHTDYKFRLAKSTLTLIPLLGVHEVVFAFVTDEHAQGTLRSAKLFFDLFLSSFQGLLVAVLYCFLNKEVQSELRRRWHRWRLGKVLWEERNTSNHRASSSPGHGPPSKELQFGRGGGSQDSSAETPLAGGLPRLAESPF
From the text: as §1, §2

| Compound | EC50 [1] [nM] | EC50 [2] [nM] | EC50 [3] |
| --- | --- | --- | --- |
| CCCCCCCCCCCCCCCC(=O)N[C@@H](CCC(=O)NCCCC[C@H](NC(=O)[C@H](CO)NC(=O)[C@H](CC(=O)O)NC(=O)[C@H](CC(C)C)NC(=O)[C@H](Cc1ccc(O)cc1)NC(=O)[C@H](CCCCN)NC(=O)[C@H](CO)NC(=O)[C@H](Cc1ccc(O)cc1)NC(=O)[C@H](CC(=O)O)NC(=O)[C@H](CO)NC(=O)[C@@H](NC(=O)[C@H](Cc1ccccc1)NC(=O)[C@@H](NC(=O)CNC(=O)[C@H](CCC(N)=O)NC(=O)CNC(=O)[C@@H](N)Cc1c[nH]cn1)[C@@H](C)O)[C@@H](C)O)C(=O)N[C@@H](CCCNC(=N)N)C(=O)N[C@@H](C)C(=O)N[C@@H](C)C(=O)N[C@@H](CC(=O)O)C(=O)N[C@@H](Cc1ccccc1)C(=O)N[C@H](C(=O)N[C@@H](C)C(=O)N[C@@H](Cc1c[nH]c2ccccc12)C(=O)N[C@@H](CC(C)C)C(=O)N[C@H](C(=O)N[C@@H](C)C(=O)NCC(=O)NCC(N)=O)C(C)C)C(C)C)C(=O)O [g736] (H-HGQGTFTSDYSKYLDSK([γGlu-Palmitoyl])RAADFVAWLVAGG-NH2; N-terminus assumed) | 0.0854 | – | 0.919 nM and 0.92 nM |
| CCCCCCCCCCCCCCCC(=O)N[C@@H](CCC(=O)NCCCC[C@H](NC(=O)[C@H](C)NC(=O)[C@H](CCCNC(=N)N)NC(=O)[C@H](CCCNC(=N)N)NC(=O)[C@H](CO)NC(=O)[C@H](CC(=O)O)NC(=O)[C@H](CC(C)C)NC(=O)[C@H](Cc1ccc(O)cc1)NC(=O)[C@H](CCCCN)NC(=O)[C@H](CO)NC(=O)[C@H](Cc1ccc(O)cc1)NC(=O)[C@H](CC(=O)O)NC(=O)[C@H](CO)NC(=O)[C@@H](NC(=O)[C@H](Cc1ccccc1)NC(=O)[C@@H](NC(=O)CNC(=O)[C@H](CCC(N)=O)NC(=O)[C@H](CO)NC(=O)[C@@H](N)Cc1c[nH]cn1)[C@@H](C)O)[C@@H](C)O)C(=O)N[C@@H](CC(=O)O)C(=O)N[C@@H](Cc1ccccc1)C(=O)N[C@H](C(=O)N[C@@H](CCC(N)=O)C(=O)N[C@@H](Cc1c[nH]c2ccccc12)C(=O)N[C@@H](CC(C)C)C(=O)N[C@@H](CCC(=O)O)C(=O)N[C@@H](C)C(=O)NCC(=O)NCC(N)=O)C(C)C)C(=O)O [g744] | 2.45 | – | 0.0392 nM |
| CCCCCCCCCCCCCCCC(=O)N[C@@H](CCC(=O)NCCCC[C@H](NC(=O)[C@@H](NC(=O)[C@H](Cc1ccccc1)NC(=O)[C@H](CC(=O)O)NC(=O)[C@H](CCC(N)=O)NC(=O)[C@H](C)NC(=O)[C@H](CCCNC(=N)N)NC(=O)[C@H](CCCNC(=N)N)NC(=O)[C@H](CO)NC(=O)[C@H](CC(=O)O)NC(=O)[C@H](CC(C)C)NC(=O)[C@H](Cc1ccc(O)cc1)NC(=O)[C@H](CCCCN)NC(=O)[C@H](CO)NC(=O)[C@H](Cc1ccc(O)cc1)NC(=O)[C@H](CC(=O)O)NC(=O)[C@H](CO)NC(=O)[C@@H](NC(=O)[C@H](Cc1ccccc1)NC(=O)[C@@H](NC(=O)CNC(=O)[C@H](CCC(N)=O)NC(=O)[C@H](CO)NC(=O)[C@@H](N)Cc1c[nH]cn1)[C@@H](C)O)[C@@H](C)O)C(C)C)C(=O)N[C@@H](Cc1c[nH]c2ccccc12)C(=O)N[C@@H](CC(C)C)C(=O)N[C@@H](CCC(=O)O)C(=O)N[C@@H](C)C(=O)NCC(=O)NCC(N)=O)C(=O)O [g746] | 11.5 | – | 0.0354 nM |
| CCCCCCCCCCCCCCCC(=O)NCCCCCC(=O)NCCCC[C@H](NC(=O)[C@H](C)NC(=O)[C@H](CCCNC(=N)N)NC(=O)[C@H](CCC(=O)O)NC(=O)[C@H](CO)NC(=O)[C@H](CC(=O)O)NC(=O)[C@H](CC(C)C)NC(=O)[C@H](Cc1ccc(O)cc1)NC(=O)[C@H](CCCCN)NC(=O)[C@H](CO)NC(=O)[C@H](Cc1ccc(O)cc1)NC(=O)[C@H](CC(=O)O)NC(=O)[C@H](CO)NC(=O)[C@@H](NC(=O)[C@H](Cc1ccccc1)NC(=O)[C@@H](NC(=O)CNC(=O)[C@H](CCC(N)=O)NC(=O)[C@H](CO)NC(=O)[C@@H](N)Cc1c[nH]cn1)[C@@H](C)O)[C@@H](C)O)C(=O)N[C@@H](CC(=O)O)C(=O)N[C@@H](Cc1ccccc1)C(=O)N[C@H](C(=O)N[C@@H](C)C(=O)N[C@@H](Cc1c[nH]c2ccccc12)C(=O)N[C@@H](CC(C)C)C(=O)N[C@@H](CCC(=O)O)C(=O)N[C@@H](CCCNC(=N)N)C(=O)NCC(=O)NCC(N)=O)C(C)C [g787] (H-HSQGTFTSDYSKYLDSERAK([Ahx-Palmitoyl])DFVAWLERGG-NH2; N-terminus assumed) | 6.65 | – | 0.0436 nM |
| HSQGTFTSDYSKYLDSRRAQDFVQWLVRGGPSSGAPPPSK-NH2 [g319] | 0.0361 | – | 0.0104 nM |

Continued, values first:

| EC50 [1] [nM] | EC50 [2] [nM] | EC50 [3] | Compound |
| --- | --- | --- | --- |
| 0.0398 | 74.1 | – | CCCCCCCCCCCCCCCC(=O)N[C@@H](CCC(=O)NCCCC[C@H](NC(=O)[C@H](Cc1ccc(O)cc1)NC(=O)[C@H](CCCCN)NC(=O)[C@H](CO)NC(=O)[C@H](Cc1ccc(O)cc1)NC(=O)[C@H](CC(=O)O)NC(=O)[C@H](CO)NC(=O)[C@@H](NC(=O)[C@H](Cc1ccccc1)NC(=O)[C@@H](NC(=O)CNC(=O)[C@H](CCC(N)=O)NC(=O)[C@H](CO)NC(=O)[C@@H](N)Cc1c[nH]cn1)[C@@H](C)O)[C@@H](C)O)C(=O)N[C@@H](CC(=O)O)C(=O)N[C@@H](CO)C(=O)N[C@@H](CCCNC(=N)N)C(=O)N[C@@H](CCCNC(=N)N)C(=O)N[C@@H](C)C(=O)N[C@@H](CCC(N)=O)C(=O)N[C@@H](CC(=O)O)C(=O)N[C@@H](Cc1ccccc1)C(=O)N[C@H](C(=O)N[C@@H](CCC(N)=O)C(=O)N[C@@H](Cc1c[nH]c2ccccc12)C(=O)N[C@@H](CC(C)C)C(=O)N[C@@H](CCC(=O)O)C(=O)N[C@@H](C)C(=O)NCC(=O)NCC(N)=O)C(C)C)C(=O)O [g601] (H-HSQGTFTSDYSKYK([γGlu-Palmitoyl])DSRRAQDFVQWLEAGG-NH2; N-terminus assumed) |
| 0.0159 | 126 | – | CCCCCCCCCCCCCCCC(=O)NCCCCCC(=O)NCCCC[C@H](NC(=O)[C@H](CO)NC(=O)[C@H](CC(=O)O)NC(=O)[C@H](CC(C)C)NC(=O)[C@H](Cc1ccc(O)cc1)NC(=O)[C@H](CCC(=O)O)NC(=O)[C@H](CO)NC(=O)[C@H](Cc1ccc(O)cc1)NC(=O)[C@H](CC(=O)O)NC(=O)[C@H](CO)NC(=O)[C@@H](NC(=O)[C@H](Cc1ccccc1)NC(=O)[C@@H](NC(=O)CNC(=O)[C@H](CCC(N)=O)NC(=O)CNC(=O)[C@@H](N)Cc1c[nH]cn1)[C@@H](C)O)[C@@H](C)O)C(=O)N[C@@H](CCCNC(=N)N)C(=O)N[C@@H](C)C(=O)N[C@@H](C)C(=O)N[C@@H](CC(=O)O)C(=O)N[C@@H](Cc1ccccc1)C(=O)N[C@H](C(=O)N[C@@H](C)C(=O)N[C@@H](Cc1c[nH]c2ccccc12)C(=O)N[C@@H](CC(C)C)C(=O)N[C@@H](CCC(=O)O)C(=O)N[C@@H](CCCNC(=N)N)C(=O)NCC(=O)NCC(N)=O)C(C)C [g683] |
| 0.0814 | – | 734 nM | CCCCCCCCCCCCCCCC(=O)N[C@@H](CCC(=O)NCCCC[C@H](NC(=O)[C@H](CO)NC(=O)[C@H](CC(=O)O)NC(=O)[C@H](CC(C)C)NC(=O)[C@H](Cc1ccc(O)cc1)NC(=O)[C@H](CCCCN)NC(=O)[C@H](CO)NC(=O)[C@H](Cc1ccc(O)cc1)NC(=O)[C@H](CC(=O)O)NC(=O)[C@H](CO)NC(=O)[C@@H](NC(=O)[C@H](Cc1ccccc1)NC(=O)[C@@H](NC(=O)CNC(=O)[C@H](CCC(=O)O)NC(=O)CNC(=O)[C@@H](N)Cc1c[nH]cn1)[C@@H](C)O)[C@@H](C)O)C(=O)N[C@@H](CCCNC(=N)N)C(=O)N[C@@H](C)C(=O)N[C@@H](C)C(=O)N[C@@H](CC(=O)O)C(=O)N[C@@H](Cc1ccccc1)C(=O)N[C@H](C(=O)N[C@@H](C)C(=O)N[C@@H](Cc1c[nH]c2ccccc12)C(=O)N[C@@H](CC(C)C)C(=O)N[C@H](C(=O)N[C@@H](C)C(=O)NCC(=O)NCC(N)=O)C(C)C)C(C)C)C(=O)O [g737] (H-HGEGTFTSDYSKYLDSK([γGlu-Palmitoyl])RAADFVAWLVAGG-NH2; N-terminus assumed) |
| 0.0558 | – | 0.00463 nM | CCCCCCCCCCCCCCCC(=O)N[C@@H](CCC(=O)NCCCC[C@H](NC(=O)[C@H](Cc1ccc(O)cc1)NC(=O)[C@H](CCCNC(=N)N)NC(=O)[C@H](CO)NC(=O)[C@H](Cc1ccc(O)cc1)NC(=O)[C@H](CC(=O)O)NC(=O)[C@H](CO)NC(=O)[C@@H](NC(=O)[C@H](Cc1ccccc1)NC(=O)[C@@H](NC(=O)CNC(=O)[C@H](CCC(N)=O)NC(=O)[C@H](CO)NC(=O)[C@@H](N)Cc1c[nH]cn1)[C@@H](C)O)[C@@H](C)O)C(=O)N[C@@H](CC(=O)O)C(=O)N[C@@H](CO)C(=O)N[C@@H](CCC(=O)O)C(=O)N[C@@H](CCCNC(=N)N)C(=O)N[C@@H](C)C(=O)N[C@@H](CCCNC(=N)N)C(=O)N[C@@H](CC(=O)O)C(=O)N[C@@H](Cc1ccccc1)C(=O)N[C@H](C(=O)N[C@@H](C)C(=O)N[C@@H](Cc1c[nH]c2ccccc12)C(=O)N[C@@H](CC(C)C)C(=O)N[C@H](C(=O)N[C@@H](C)C(=O)NCC(=O)NCC(N)=O)C(C)C)C(C)C)C(=O)O [g821] |
